Some results are limits rather than exact numbers.

For 108 compounds, IC50 results are on record in the Kinase Knowledgebase extract (Sharma et al. 2016).

The target in the assay is CDK2 (human) (UniProt P24941). Briefly: Enzyme Assay.
As a reminder, the IC50 is the concentration needed to halve the response being measured. Higher therefore signals a need for much substance. Consider `Cc1ccccc1CNc1cc(-c2cn[nH]c2C2CC2)ccn1`, for which the IC50 is under 5 µM. Turning to `Cc1cnc(NC2CCN(C)CC2)nc1-c1c[nH]nc1C(C)C`, the IC50 is under 5 µM.

`CC(C)c1n[nH]cc1-c1ccnc(NC2CCc3cc(F)ccc32)n1` (stereo not drawn) displayed an IC50 of under 0.5 µM. The compound `CC(C)c1[nH]ncc1-c1ccnc(NCc2cccc(C(F)(F)F)c2)c1` gave an IC50 of under 5 µM. `CC(C)c1n[nH]cc1-c1ccnc(NC2Cc3ccccc3C2)n1` showed an IC50 of under 0.5 µM.

As for `c1ccc2c(c1)CC(Nc1cc(-c3cn[nH]c3C3CC3)ccn1)C2`, the IC50 is under 1 µM. `Cc1ccccc1CNc1cc(-c2cn[nH]c2C2CCCCCC2)ccn1`: the IC50 is under 10 µM. With `CN1CCC(Nc2cc(-c3cn[nH]c3C(C)(C)C)ccn2)CC1`, the IC50 is under 15 µM.

In turn, `Cc1n[nH]cc1-c1ccnc(NCCC#N)n1` registered an IC50 of under 15 µM.

With `c1cc(-c2cn[nH]c2C2CCCC2)cc(NCC2CC2)n1`, the IC50 is under 5 µM. As for `CC(C)c1[nH]ncc1-c1ccnc(NCCN2CCOCC2)c1`, the figure is under 10 µM. Regarding `CC(C)c1n[nH]cc1-c1ccnc(NC(C)c2ccccc2)n1` (stereo not drawn), the IC50 is under 5 µM. With `Cc1nnc(C(C)Nc2nccc(-c3c[nH]nc3C(C)C)n2)[nH]1` (stereo not drawn) the figure was under 15 µM; with `c1ccc2c(c1)CCC2Nc1cc(-c2cn[nH]c2C2CC2)ccn1` (stereo not drawn), under 5 µM. As for `CCC(C)Nc1cc(-c2cn[nH]c2C(C)C)ccn1` (stereo not drawn), the figure is under 1 µM; as for `Cc1n[nH]cc1-c1ccnc(NC2CCN(c3ccccc3)CC2)n1`, under 5 µM; as for `Cc1n[nH]cc1-c1ccnc(NCCc2ccccc2)n1`, under 10 µM. In turn, `Cc1cc(C)n(CCNc2nccc(-c3c[nH]nc3C(C)C)n2)n1` returned an IC50 of under 15 µM. `Cc1n[nH]cc1-c1ccnc(NCC2CCCCC2)n1` returned an IC50 of under 10 µM. `CC(CCc1ccccc1)Nc1nccc(-c2c[nH]nc2C(C)C)n1` (stereo not drawn): the 50% inhibitory concentration (IC50) was under 5 µM. As to `Cc1n[nH]cc1-c1ccnc(NCC2CC2)n1`, the IC50 is under 10 µM.

As for `CC(C)CNc1nccc(-c2c[nH]nc2C(C)C)n1`, the IC50 was under 0.1 µM. `Cc1ccccc1CNc1cc(-c2cn[nH]c2C2CCCC2)ccn1` yielded an IC50 of under 5 µM. On to `CC(C)c1n[nH]cc1-c1ccnc(N[C@@H](C)c2ccccc2)n1`, for which the IC50 was under 10 µM. With `CC(C)c1n[nH]cc1-c1ccnc(NCc2ccccc2C(F)(F)F)n1` the figure was under 5 µM; with `Cc1n[nH]cc1-c1ccnc(NCC2CCCCCC2)n1`, under 15 µM. With `CC(C)c1[nH]ncc1-c1ccnc(NCC2CCCO2)c1` (stereo not drawn) the figure was under 10 µM; with `c1cc(-c2cn[nH]c2C2CCCC2)cc(NC2CCCCC2)n1`, under 1 µM; with `CCCNc1cc(-c2cn[nH]c2C(C)C)ccn1`, under 5 µM. As for `c1ccc2c(c1)CC(Nc1cc(-c3cn[nH]c3C3CCCCCC3)ccn1)C2`, the figure is under 1 µM; as for `CCCCNc1nccc(-c2c[nH]nc2C)n1`, under 10 µM. As to `CCC(C)c1[nH]ncc1-c1ccnc(NCc2ccccc2C)c1` (stereo not drawn), the IC50 is under 5 µM.

The compound `CCC(CC)c1[nH]ncc1-c1ccnc(NC2CCN(C)CC2)c1` displayed an IC50 of under 10 µM.

In turn, `COc1ccc(CNc2cc(-c3cn[nH]c3C(C)C)ccn2)cc1` gave an IC50 of under 5 µM.

With `Cc1cccc(CNc2cc(-c3cn[nH]c3C3CCCC3)ccn2)c1`, the IC50 was under 5 µM.

For the compound `Cc1ccc(CNc2cc(-c3cn[nH]c3C(C)C)ccn2)cc1`, the IC50 is under 5 µM. With `Cc1ccccc1CNc1nccc(-c2c[nH]nc2C(C)C)n1` the figure was under 1 µM; with `COCCNc1cc(-c2cn[nH]c2C(C)C)ccn1`, under 10 µM; with `CC(C)c1n[nH]cc1-c1ccnc(NC(C)c2ccccn2)n1` (stereo not drawn), under 10 µM. As for `CC(C)c1[nH]ncc1-c1ccnc(NCc2ccccc2C(F)(F)F)c1`, the figure is under 5 µM; as for `CC(C)c1[nH]ncc1-c1ccnc(NCCc2ccccn2)c1`, under 5 µM. Compound `FC(F)(F)c1ccccc1CNc1cc(-c2cn[nH]c2C2CCCC2)ccn1` came in with a half-inhibitory concentration (IC50) of under 5 µM. As for `Cc1n[nH]cc1-c1ccnc(NCCCO)n1`, the figure is under 15 µM; as for `CC(C)c1n[nH]cc1-c1ccnc(N[C@H]2CCCc3ccccc32)n1`, under 0.5 µM.

Compound `c1cc(-c2cn[nH]c2C2CCCC2)cc(NC2CCCCCC2)n1` came in with a half-maximal inhibitory concentration (IC50) of under 1 µM. In the case of `Cc1n[nH]cc1-c1ccnc(NCc2cccnc2)n1`, the IC50 was under 10 µM.

`CC(C)c1[nH]ncc1-c1ccnc(NCCc2cccnc2)c1`: the IC50 is under 5 µM. As for `CC(C)c1n[nH]c(Br)c1-c1ccnc(NC2CCN(C)CC2)n1`, the figure is under 5 µM; as for `Cc1n[nH]cc1-c1ccnc(NCC(C)C)n1`, under 5 µM; as for `COc1ccccc1CNc1nccc(-c2c[nH]nc2C)n1`, under 15 µM. Regarding `CCC(CC)c1[nH]ncc1-c1ccnc(NC2CCc3ccccc32)c1` (stereo not drawn), the 50% inhibitory concentration (IC50) is under 5 µM. Consider `CC(C)c1[nH]ncc1-c1ccnc(NCCOc2ccccc2)c1`, for which the IC50 is under 10 µM. With `Cc1ccccc1CNc1nccc(-c2c[nH]nc2C)n1` the figure was under 10 µM; with `CC(C)CCNc1cc(-c2cn[nH]c2C(C)C)ccn1`, under 5 µM; with `CC(C)c1[nH]ncc1-c1ccnc(NC2CCCCC2)c1`, under 0.5 µM. `Cc1n[nH]cc1-c1ccnc(NC2CCCCC2)n1` returned an IC50 of under 5 µM. In turn, `CC(C)c1n[nH]cc1-c1ccnc(NC2CCCc3ccccc32)n1` (stereo not drawn) gave an IC50 of under 1 µM. With `CC(C)c1nn(C)cc1-c1ccnc(NC2CCN(C)CC2)n1` the figure was under 5 µM; with `CC(C)c1[nH]ncc1-c1ccnc(NCc2ccco2)c1`, under 5 µM.

With `Cc1n[nH]cc1-c1ccnc(NCc2cccc(C(F)(F)F)c2)n1`, the IC50 is under 10 µM. In turn, `c1cc(-c2cn[nH]c2C2CCCC2)cc(NC2CC2)n1` returned an IC50 of under 1 µM.

On to `CC(C)c1n[nH]cc1-c1ccnc(NCCCN(C)C)n1`, for which the IC50 was under 10 µM. As for `CCC(CC)c1[nH]ncc1-c1ccnc(NC2CCN(C(=O)OC(C)(C)C)CC2)c1`, the figure is under 5 µM; as for `CC(C)c1n[nH]cc1-c1ccnc(N[C@H]2CCc3ccccc32)n1`, under 0.5 µM. With `CC(C)c1n[nH]cc1-c1ccnc(NC2CCc3cc(Cl)ccc32)n1` (stereo not drawn) the figure was under 0.5 µM; with `CC(C)c1n[nH]cc1-c1ccnc(NCc2ccccc2F)n1`, under 0.5 µM; with `CC(C)c1n[nH]cc1-c1nc(NC2CCN(C)CC2)ncc1Br`, under 5 µM. The compound `CC(C)c1[nH]ncc1-c1ccnc(NCc2ccc3c(c2)OCO3)c1` gave an IC50 of under 5 µM. On to `CC(C)CNc1cc(-c2cn[nH]c2C(C)C)ccn1`, for which the IC50 was under 0.5 µM. `Cc1n[nH]cc1-c1ccnc(NCCc2c[nH]c3ccccc23)n1`: the IC50 was under 10 µM. Compound `COCC(C)Nc1nccc(-c2c[nH]nc2C(C)C)n1` (stereo not drawn) displayed an IC50 of under 1 µM. As for `CC(C)c1[nH]ncc1-c1ccnc(NC2CCN(C)CC2)c1`, the figure is under 15 µM; as for `Cc1n[nH]cc1-c1ccnc(NC2CCCCCC2)n1`, under 5 µM; as for `CC(C)c1n[nH]cc1-c1ccnc(N[C@@H]2CCc3ccccc32)n1`, under 5 µM. As for `CC(=O)NCCNc1nccc(-c2c[nH]nc2C)n1`, the figure is under 15 µM; as for `CC(C)c1n[nH]cc1-c1ccnc(NCc2c(F)cccc2F)n1`, under 5 µM; as for `CCC(C)Nc1nccc(-c2c[nH]nc2C)n1` (stereo not drawn), under 5 µM. As for `CC(C)COCCCNc1nccc(-c2c[nH]nc2C(C)C)n1`, the IC50 is under 5 µM.

Take `CC(C)c1[nH]ncc1-c1ccnc(NC(C)c2ccccc2)c1` (stereo not drawn): the IC50 was under 5 µM. With `CC(C)CNc1cc(-c2cn[nH]c2C2CCCC2)ccn1` the figure was under 1 µM. As for `Cc1n[nH]cc1-c1ccnc(NC2CCN(C)CC2)n1`, the figure is under 15 µM. The compound `CC(C)c1[nH]ncc1-c1ccnc(NCc2cc(F)cc(F)c2)c1` showed an IC50 of under 5 µM. Take `Cc1n[nH]cc1-c1ccnc(NC2CCN(Cc3ccccc3)C2)n1` (stereo not drawn): the IC50 was under 10 µM. With `CC(C)c1n[nH]cc1-c1ccnc(NC2CC(C)(C)c3ccccc32)n1` (stereo not drawn) the figure was under 5 µM. As for `CC(C)c1[nH]ncc1-c1ccnc(NCC2CCCCCC2)c1`, the figure is under 5 µM.

The compound `CC(C)c1[nH]ncc1-c1ccnc(NCC2CC2)c1` came in with an IC50 of under 5 µM. `CC(C)c1[nH]ncc1-c1ccnc(NC2CCc3ccccc32)c1` (stereo not drawn) registered an IC50 of under 5 µM. As for `CC(C)c1[nH]ncc1-c1ccnc(NC2CCN(Cc3ccccc3)CC2)c1`, the figure is under 15 µM; as for `CC(C)c1n[nH]cc1-c1ccnc(NCCCNC2CCCCC2)n1`, under 10 µM; as for `CC(C)c1[nH]ncc1-c1ccnc(NC2CCC2)c1`, under 0.5 µM. With `Cc1n[nH]cc1-c1ccnc(NCc2ccc(F)cc2)n1` the figure was under 10 µM.

Compound `CC(C)c1n[nH]cc1-c1ccnc(NCCCN(C)c2ccccc2)n1` returned an IC50 of under 5 µM. With `CC(C)c1n[nH]cc1-c1ccnc(NC2CCNCC2)n1` the figure was under 1 µM; with `c1cncc(CCNc2cc(-c3cn[nH]c3C3CCCC3)ccn2)c1`, under 5 µM; with `CCC(CC)c1[nH]ncc1-c1ccnc(NCc2ccccc2C)c1`, under 5 µM.

Turning to `CC(C)c1[nH]ncc1-c1ccnc(NCCc2ccccc2)c1`, the IC50 is under 1 µM. As for `Cc1nnc(CCNc2nccc(-c3c[nH]nc3C(C)C)n2)[nH]1`, the figure is under 5 µM. With `CC(C)c1n[nH]cc1-c1ccnc(NC2CCN(Cc3ccccc3)CC2)n1` the figure was under 1 µM. In turn, `CC(C)c1[nH]ncc1-c1ccnc(NCc2ccc(F)cc2)c1` came in with an IC50 of under 5 µM.

The compound `c1cc(-c2cn[nH]c2C2CCCC2)cc(NC2CCCC2)n1` gave an IC50 of under 0.5 µM.

The compound `c1ccc(CCNc2cc(-c3cn[nH]c3C3CCCC3)ccn2)cc1` came in with an IC50 of under 5 µM. As for `CC(C)c1n[nH]cc1-c1ccnc(NC2CCCCC2)n1`, the figure is under 0.05 µM; as for `Cc1n[nH]cc1-c1ccnc(NC2CCCNC2)n1` (stereo not drawn), under 5 µM. Consider `CC(C)c1[nH]ncc1-c1ccnc(NC2CC2)c1`, for which the IC50 was under 1 µM. Take `Cc1n[nH]cc1-c1ccnc(NC2CCCC2)n1`: the half-inhibitory concentration (IC50) is under 5 µM. As for `CC(C)c1[nH]ncc1-c1ccnc(NC(CO)C(C)C)c1` (stereo not drawn), the figure is under 15 µM; as for `CC(C)c1n[nH]cc1-c1ccnc(NC2CCc3ccccc32)n1` (stereo not drawn), under 1 µM; as for `CC(C)c1[nH]ncc1-c1ccnc(NCCCn2ccnc2)c1`, under 1 µM.
